Where two headings read alike, the source gives them in different places.
What was measured:
[1] = test system: Aβ42 release in H4-15× cells; assay: Inhibition of Aβ42 release in the supernatant of H4-15× cells; format: cell-based, human; conditions: for inhibition at 100 µM: Homo sapiens, H415, overnight (14-16 hours) incubation; for % inhibition of Aβ42 release: 100 μM, overnight (14-16 hours) incubation
Protocol: H4-15× cells (human neuroglioma cells transfected with the human gene encoding for the precursor of β-amyloid protein APP695) were cultured in flasks (in incubator at 37° C., under aqueous vapour saturated atmosphere with 5% carbon dioxide), in the presence of hygromycin and blasticidin, which maintain the selective pressure for the cells continuously expressing the gene of interest.
When the cells reached about 90% confluency, they were collected and re-seeded in 24 wells plates (2×10^5 cells each), in 0.5 ml of complete culture medium. After approx. 24 hours, when the cells had adhered to the well surface and reached confluency, the medium of each well was replaced with 0.5 ml of fresh culture medium, supplemented with a compound (I) to 100 micromolar final concentration. Each tested concentration was repeated in triplicate. The molecules used for the treatment were previously dissolved in dimethylsulfoxide (DMSO) or in a dimethylsulfoxide/water mixture, the final concentration of DMSO in the wells not exceeding 1%. Thus the prepared plates were incubated again overnight (14-16 hours); afterwards the cell supernatant was taken from each well and Aβ42 and Aβ40 proteins were quantitated. The assay was carried out with an instrumentation for microplates chemoluminescence analysis, which allows to separately quantify the two proteins and is based on the immobilization of an analyte-antibody complex on paramagnetic microbeads. One of the antibodies of this complex is marked with a ruthenium compound which, upon electrochemical excitement, gives a light signal, having intensity proportional to the amount of analyte present.

cyclooxygenase-1 (COX-1) = target: T1, cyclooxygenase-1 (COX-1) (Rattus norvegicus, UniProt Q63921); assay: Inhibition of cyclooxygenase-1 (COX-1) in rat whole blood (TxB2 production); format: cell-based; conditions: for inhibition at 100 µM: read-out: % COX-1 inhibitory activity
T1 construct: Aliquots of heparinized blood (500 μl) were preincubated with 100 μM concentration of the tested compounds; from tissue; host or cells: rat whole blood (heparinized, from the abdominal aorta)
T1 sequence (Q63921 27-602): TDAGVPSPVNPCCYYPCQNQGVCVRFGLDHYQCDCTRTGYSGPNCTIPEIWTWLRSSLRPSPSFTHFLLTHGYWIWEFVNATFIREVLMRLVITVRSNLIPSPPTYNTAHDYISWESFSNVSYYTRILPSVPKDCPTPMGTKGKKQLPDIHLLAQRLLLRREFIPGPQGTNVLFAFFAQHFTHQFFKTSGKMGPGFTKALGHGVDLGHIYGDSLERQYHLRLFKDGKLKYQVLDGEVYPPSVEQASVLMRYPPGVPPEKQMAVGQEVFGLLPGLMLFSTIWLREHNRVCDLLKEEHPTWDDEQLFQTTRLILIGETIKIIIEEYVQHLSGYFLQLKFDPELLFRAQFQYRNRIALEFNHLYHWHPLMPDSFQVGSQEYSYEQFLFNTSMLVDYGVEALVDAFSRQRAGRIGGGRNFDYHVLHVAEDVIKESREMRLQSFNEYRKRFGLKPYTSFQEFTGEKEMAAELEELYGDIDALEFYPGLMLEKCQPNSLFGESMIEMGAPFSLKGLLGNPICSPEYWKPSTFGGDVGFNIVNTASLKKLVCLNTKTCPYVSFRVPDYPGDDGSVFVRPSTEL
Protocol: Whole blood was taken from the rat abdominal aorta and immediately placed in heparinized tubes. Aliquots of heparinized blood (500 μl) were preincubated with 100 μM concentration of the tested compounds or with the only carrier (DMSO) for 1 h at 37° C. Eicosanoid production was induced by addition of calcium ionophore A23187 (final concentration 5×10^−5 M) and was interrupted after 30 minute incubation by quickly placing the samples in dry ice. Thereafter, samples were centrifuged (12000 g×3 minutes a 4° C.) and the production of TxB2 thromboxane B2 was calculated by radioimmunoassay.

[2] = 100 μM, rat whole blood, calcium ionophore A23187-induced TxB2 production

Structure (SMILES) | inhibition at 100 µM [1] | inhibition at 100 µM (cyclooxygenase-1 (COX-1); [2]) | % COX-1 inhibitory activity (cyclooxygenase-1 (COX-1); [2]) | % inhibition of Aβ42 release [1] | inhibition at 100 µM (cyclooxygenase-1 (COX-1))
CC(C)(C(=O)O)c1ccc(-c2ccc(C(F)(F)F)cc2)c(F)c1 [CHF 4810, 2-methyl-2(2-fluoro-4′-trifluoromethylbiphen-4-yl)propionic acid] | 58% |  |  |  | 
CC(C)(C(=O)O)c1ccc(-c2ccc(C3CCCCC3)cc2)c(F)c1 [CHF 4961, 2-methyl-2(2-fluoro-4′cyclohexylbiphen-4-yl)propionic acid] | 76.6% | 5.2% |  |  | 
O=C(O)C1(c2ccc(-c3ccc(C(F)(F)F)cc3)c(F)c2)CC1 [CHF 5022, 1-(2-fluoro-4′-trifluoromethylbiphenyl-4-yl)cyclopropanecarboxylic acid] | 55.4% | 0% |  |  | 
O=C(O)C1(c2ccc(-c3cccc(OC(F)(F)F)c3)c(F)c2)CC1 [CHF 5045, 1-(2-fluoro-3′-trifluoromethoxybiphenyl-4-yl)cyclopropanecarboxylic acid] | 56.4% | 8.3% |  |  | 
O=C(O)C1(c2ccc(-c3ccc(OC(F)(F)F)cc3)c(F)c2)CC1 [CHF 5046, 1-(2-fluoro-4′-trifluoromethoxybiphenyl-4-yl)cyclopropanecarboxylic acid] | 70.4% | 2.6% |  |  | 
O=C(O)C1(c2ccc(-c3cccc(C(F)(F)F)c3)c(F)c2)CC1 [CHF 5058, 1-(2-fluoro-3′-trifluoromethylbiphenyl-4-yl)cyclopropanecarboxylic acid] | 54.8% | 0% |  |  | 
O=C(O)C1(c2ccc(-c3ccc(O)cc3)c(F)c2)CC1 [CHF 5070, 1-(2-fluoro-4′-hydroxybiphenyl-4-yl)cyclopropanecarboxylic acid] | 22.4% | 0% |  |  | 
O=C(O)C1(c2ccc(-c3ccc(OC4CCOCC4)cc3)c(F)c2)CC1 [CHF 5071, 1-[2-fluoro-4′-(tetrahydropyran-4-yloxy)biphenyl-4-yl]-cyclopropane-carboxylic acid] | 28.1% | 0.4% |  |  | 
O=C(O)C1(c2ccc(-c3ccc(F)c(F)c3)c(F)c2)CC1 [CHF 5073, 1-(2,3′,4′-trifluorobiphenyl-4-yl)cyclopropanecarboxylic acid] | 67.4% | 4.8% |  |  | 
O=C(O)C1(c2ccc(-c3ccc(Cl)c(Cl)c3)c(F)c2)CC1 [CHF 5074, 1-(3′,4′-dichloro-2-fluorobiphenyl-4-yl)cyclopropanecarboxylic acid] | 79.2% | 0.5% |  |  | 
O=C(O)C1(c2ccc(-c3ccc(F)c(Cl)c3)c(F)c2)CC1 [CHF 5076, 1-(3′-chloro-2,4′-difluorobiphenyl-4-yl)cyclopropanecarboxylic acid] | 71.4% | 5.5% |  |  | 
C#CCOc1ccc(-c2ccc(C3(C(=O)O)CC3)cc2F)cc1 [CHF 5078, 1-(2-fluoro-4′-prop-2-inyloxy-biphenyl-4-yl)-cyclopropanecarboxylic acid] |  |  | 3.6% | 57.5% | 
O=C(O)C1(c2ccc(-c3ccc(C4CCOCC4)cc3)c(F)c2)CC1 [CHF 5080, 1-[2-fluoro-4′-(tetrahydropyran-4-yl)-biphenyl-4-yl]-cyclopropanecarboxylic acid] | 51.8% | 0.3% |  |  | 
O=C1CCC(c2ccc(-c3ccc(C4(C(=O)O)CC4)cc3F)cc2)CC1 [CHF 5081, 1-[2-fluoro-4′-(4-oxo-cyclohexyl)-biphenyl-4-yl]-cyclopropanecarboxylic acid] | 52.3% | 6.1% |  |  | 
O=C(O)C1CC1c1ccc(-c2ccc(-c3ccc(O)cc3)cc2)c(F)c1 (centres unmarked) [CHF 5083, 2-(2″-fluoro-4-hydroxy-[1,1′:4′,1″]tert-phenyl-4″-yl)-cyclopropanecarboxylic acid] |  |  |  | 81.1% | 
O=C(O)C1(c2ccc(-c3ccc(OC4CCC(C(F)(F)F)CC4)cc3)c(F)c2)CC1 (centres unmarked) [CHF 5096, 1-[2-fluoro-4′-[[4-(trifluoromethyl)cyclohexyl]oxy][1,1′-biphenyl]-4-yl]-cyclopropanecarboxylic acid] | 70% | 0.8% |  |  | 
O=C(O)C1(c2ccc(-c3ccc(-c4ccc(F)cc4)cc3F)c(F)c2)CC1 [CHF 5105, 1-(2,2′,4″-trifluoro[1,1′:4′,1″-tert-phenyl]-4-yl)-cyclopropanecarboxylic acid] |  |  | 1.9% | 90.7% | 
O=C(O)C1(c2ccc(-c3ccc(-c4ccc(O)cc4)c(F)c3)c(F)c2)CC1 [CHF 5106, 1-(2,3′-difluoro-4″-hydroxy[1,1′:4′,1″-tert-phenyl]-4-yl)-cyclopropane-carboxylic acid] |  |  | 0.0% | 79.9% | 
O=C(O)C1(c2ccc(-c3ccc(-c4ccc(O)cc4)cc3F)c(F)c2)CC1 [CHF 5107, 1-(2,2′-difluoro-4″-hydroxy[1,1′:4′,1″-tert-phenyl]-4-yl)-cyclopropane-carboxylic acid] |  |  | 1.1% | 83.3% | 
CC(C(=O)O)c1ccc(-c2ccccc2)c(F)c1 (centres unmarked) [Flurbiprofen, reference compound] | ~25% |  |  |  | 100%

— patent US8314268B2, “1-phenylalkanecarboxylic acid derivatives for the treatment of neurodegenerative diseases” (Chiesi Farmaceutici S.p.A., priority 2003, dated 2012)
